Measured values as given in patent US5736629A, “Herbicide resistant rice” (priority 1997, dated 1998).

Experiments:
[1] = biological target: T1, AHAS (acetohydroxyacid synthase) in enzyme extracts from rice line ATCC 75295 (Oryza sativa subsp. japonica, UniProt Q6K2E8); test: AHAS enzyme assay, extract from rice line ATCC 75295; assay type: biochemical
T1 construct: 40.0 grams (fresh weight) of tissue were extracted in the same manner for each of the three varieties; from tissue; host or cells: stem tissue of greenhouse-grown rice seedlings, line ATCC 75295 (leaf blades removed)
T1 sequence (Q6K2E8 40-644 limits assumed): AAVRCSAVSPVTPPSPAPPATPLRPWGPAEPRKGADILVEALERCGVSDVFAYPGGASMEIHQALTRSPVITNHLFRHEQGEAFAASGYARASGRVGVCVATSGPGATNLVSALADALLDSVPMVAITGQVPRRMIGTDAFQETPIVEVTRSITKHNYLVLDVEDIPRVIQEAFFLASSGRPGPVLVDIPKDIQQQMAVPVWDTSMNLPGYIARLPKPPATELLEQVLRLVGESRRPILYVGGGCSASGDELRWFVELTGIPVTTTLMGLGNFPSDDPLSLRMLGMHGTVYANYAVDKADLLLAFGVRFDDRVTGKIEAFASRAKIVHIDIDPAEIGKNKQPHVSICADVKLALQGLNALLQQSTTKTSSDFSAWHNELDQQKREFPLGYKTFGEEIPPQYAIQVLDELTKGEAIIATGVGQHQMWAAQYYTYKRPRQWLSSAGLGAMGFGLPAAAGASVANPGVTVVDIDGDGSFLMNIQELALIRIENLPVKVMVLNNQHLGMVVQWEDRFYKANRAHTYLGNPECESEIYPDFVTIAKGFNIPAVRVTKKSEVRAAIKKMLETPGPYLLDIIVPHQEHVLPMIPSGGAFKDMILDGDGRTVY
Description: The herbicide resistance of the AHAS enzyme from the ATCC 75295 rice line was compared to the resistance of the AHAS enzymes from the rice varieties "Lemont" and "Mercury," the varieties that were the ancestors of this rice line. The procedures used to assay the activity of acetohydroxyacid synthase were substantially as described in B. K. Singh et al., "Assay of Acetohydroxyacid Synthase," Analytical Biochemistry, vol. 171, pp. 173-179 (1988), except as noted. In the first paragraph of Singh's "Materials and Methods," instead of corn suspension culture cells, stem tissues from greenhouse-grown rice seedlings at the four-leaf stage of development were used. Leaf blades were removed, and 40.0 grams (fresh weight) of tissue were extracted in the same manner for each of the three varieties. […] Pursuit herbicide (imazethapyr) was included in the "standard reaction mixture" for the AHAS assay in the concentrations indicated in Table 1 below. Checks were made of direct acetoin formation during the enzyme assay. Each treatment was conducted with two replicates.

ATCC 75295 rice line = test: Field plot test with AHAS-inhibiting herbicides, ATCC 75295; assay type: in vivo
Procedure: The resistance of these plants to several other AHAS-inhibiting herbicides was also tested. Nine-foot-long field plots were planted with seven rows of rice per plot. The test included nine check rice varieties, and the ATCC 75295 rice line. A shielded spray boom was used to apply herbicide, spraying six of the seven rows in each plot. The four herbicides used were Pursuit (imazethapyr: (±)-2-[4,5-dihydro-4-methyl-4-(1-methylethyl)-5-oxo-1H-imidazol-2-yl]-5-ethyl-3-pyridinecarboxylic acid); Scepter (imazaquin: 2-[4,5-dihydro-4-methyl-4-(1-methylethyl)-5-oxo-1H-imidazol-2-yl]-3-quinolinecarboxylic acid); Accent (nicosulfuron: 2-(((((4,6-dimethoxypyrimidin-2-yl)aminocarbonyl)) aminosulfonyl))-N,N-dimethyl-3-pyridinecarboxamide); and Beacon (primisulfuron: 3-[4,6-bis(difluoromethoxy)-pyrimidin-2-yl]-1-(2-methoxycarbonylphenylsulfonyl)urea). The herbicides were applied to two replicate plots for each herbicide when the rice was at the three-leaf stage of maturity. Two replicate plots of each check variety and of the resistant line were left unsprayed as controls. The Accent treatment used 0.67 ounce of product (0.50 ounce active ingredient) per acre, with 0.25% nonionic surfactant. The Pursuit treatment used four ounces of product (1.00 ounce active ingredient) per acre, with 0.25% nonionic surfactant. The Scepter treatment used one pint of product (3.00 ounces active ingredient) per acre, with 0.25% nonionic surfactant. The Beacon treatment used 0.76 ounce of product (0.57 ounce active ingredient) per acre, with 0.25% nonionic surfactant. […] A similar test with the same rice varieties and the ATCC 75295 line was conducted at the five-leaf stage of development (i.e., plants fifteen days older than in the test described above), using Accent and Pursuit at the rates given above. […] The ATCC 75295 line was resistant only when herbicide was applied post-emergence.

[2] = test system: single surviving plant derived from rice variety AS3510 treated with 0.5% EMS; test: Field screen of mutagenised rice seedlings, surviving plant; assay type: in vivo; details: imazethapyr 0.125 lb a.i. per acre (2X), 0.25% non-ionic surfactant; 3-4 leaf stage; about four weeks later
Description: The second resistance mechanism resulted from inducing mutations in seeds of each of ten rice varieties. Mutations were induced by exposure either to gamma rays or to the chemical mutagen ethyl methanesulfonate (EMS). Ten-pound lots of seed of each variety were subjected to 25 k-rad of gamma irradiation from a Cobalt-60 source at the Nuclear Science Center, Louisiana State University, Baton Rouge, La. prior to planting. An additional ten pounds of seed of each variety was divided into three equal portions; and each portion was soaked for 16 hours in either 0.1%, 0.5%, or 1% EMS immediately prior to planting. Several hundred pounds of seed were harvested from plants grown from the seeds subjected to these mutagenic treatments.
The following spring the harvested seed was planted in strips in a field planting occupying a total of about three acres. At the 3-4 leaf stage of seedling development, herbicides were applied to screen for herbicide-resistant mutants. Half of the seedlings of each variety were sprayed with a 2X treatment of nicosulfuron, and half were sprayed with a 2X treatment of imazethapyr, in both cases by a tractor-mounted sprayer. Nicosulfuron was applied at the rate of 0.063 lb active ingredient (a.i.) per acre, and imazethapyr was applied at 0.125 lb a.i. per acre. Non-ionic surfactant (0.25%) was added to each spray solution. […]

**Q.** Which results are given for `CCc1cnc(C2=NC(C)(C(C)C)C(=O)N2)c(C(=O)O)c1` (racemic) [imazethapyr, (±)-2-[4,5-dihydro-4-methyl-4-(1-methylethyl)-5-oxo-1H-imidazol-2-yl]-5-ethyl-3-pyridinecarboxylic acid]?
**A.** activity at 0.1 µM ([1]; imazethapyr 0.1 μM): 102%; activity at 1 µM ([1]; imazethapyr 1 μM): 89%; activity at 10 µM ([1]; imazethapyr 10 μM): 61%; activity at 100 µM ([1]; imazethapyr 100 μM): 48%; Resistance of the rice line (in words) (ATCC 75295 rice line; five-leaf stage (plants fifteen days older), same rates as in the three-leaf test): good resistance; Resistance of the rice line (in words) (ATCC 75295 rice line; three-leaf stage, per acre a.i.: Accent 0.50 ounce, Pursuit 1.00 ounce, Scepter 3.00 ounces, Beacon 0.57 ounce, 0.25% nonionic surfactant): good resistance; Symptoms of injury (in words) [2]: No symptoms of injury
